Test results reported in ChEMBL document CHEMBL5257022, “An integrated overview on pyrrolizines as potential anti-inflammatory, analgesic and antipyretic agents” (Eur J Med Chem, 2016).

Columns and labels:
[1] = biological target: T1, Prostaglandin G/H synthase 2 (Homo sapiens, UniProt P35354); assay: Inhibition of COX2 (unknown origin)
T1 sequence (P35354 whole entry): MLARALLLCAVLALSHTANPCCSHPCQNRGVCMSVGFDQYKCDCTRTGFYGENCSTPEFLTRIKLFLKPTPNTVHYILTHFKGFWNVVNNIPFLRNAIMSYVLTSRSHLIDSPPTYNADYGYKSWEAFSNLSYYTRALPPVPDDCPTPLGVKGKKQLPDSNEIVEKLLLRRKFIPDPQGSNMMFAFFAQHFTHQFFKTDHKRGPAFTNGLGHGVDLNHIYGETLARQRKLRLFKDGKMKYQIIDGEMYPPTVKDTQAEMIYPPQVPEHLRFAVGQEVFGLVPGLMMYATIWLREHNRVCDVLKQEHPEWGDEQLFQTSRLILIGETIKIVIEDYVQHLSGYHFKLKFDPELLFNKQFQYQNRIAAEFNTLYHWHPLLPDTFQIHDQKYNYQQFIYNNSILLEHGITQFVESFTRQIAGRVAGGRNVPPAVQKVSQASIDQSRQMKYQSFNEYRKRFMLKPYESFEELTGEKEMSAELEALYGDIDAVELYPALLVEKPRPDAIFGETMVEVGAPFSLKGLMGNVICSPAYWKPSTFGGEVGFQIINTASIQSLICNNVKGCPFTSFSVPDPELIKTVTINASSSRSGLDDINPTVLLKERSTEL

[2] = species on record: Mus musculus; assay: Analgesic activity in mouse assessed as inhibition of acetic acid-induced writhing response relative to aspirin; type: functional
[3] = system: Rattus norvegicus; assay: Antiinflammatory activity in rat assessed as fold change in inhibition of paw edema relative to phenylbutazone; type: functional
[4] = biological target: T2, Prostaglandin G/H synthase 1 (Ovis aries) (UniProt P05979); assay: Inhibition of COX1 in ovine thrombocyte at 10 uM relative to control
T2 sequence (whole entry): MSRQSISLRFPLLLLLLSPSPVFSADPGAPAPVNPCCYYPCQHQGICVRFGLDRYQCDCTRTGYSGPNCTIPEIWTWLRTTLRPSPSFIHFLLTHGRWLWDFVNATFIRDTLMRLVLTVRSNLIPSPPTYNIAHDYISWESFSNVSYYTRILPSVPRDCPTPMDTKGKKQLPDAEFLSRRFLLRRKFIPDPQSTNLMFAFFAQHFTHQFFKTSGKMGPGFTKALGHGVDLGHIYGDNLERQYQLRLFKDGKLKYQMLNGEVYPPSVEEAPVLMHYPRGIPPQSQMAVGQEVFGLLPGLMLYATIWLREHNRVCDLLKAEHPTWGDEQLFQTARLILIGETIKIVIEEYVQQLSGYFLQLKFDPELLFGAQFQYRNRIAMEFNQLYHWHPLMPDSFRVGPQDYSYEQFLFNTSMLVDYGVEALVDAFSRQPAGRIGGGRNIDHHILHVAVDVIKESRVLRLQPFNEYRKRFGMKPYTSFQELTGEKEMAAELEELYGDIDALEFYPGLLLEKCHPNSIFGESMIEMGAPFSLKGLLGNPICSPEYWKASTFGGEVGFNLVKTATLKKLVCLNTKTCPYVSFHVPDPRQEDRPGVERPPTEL

[5] = system: Rattus norvegicus; assay: Antiinflammatory activity in rat assessed as inhibition of paw edema; type: functional
[6] = biological target: Prostaglandin G/H synthase 1 (Homo sapiens, UniProt P23219); assay: Inhibition of COX1 (unknown origin)
Chain of Prostaglandin G/H synthase 1 (P23219 whole entry): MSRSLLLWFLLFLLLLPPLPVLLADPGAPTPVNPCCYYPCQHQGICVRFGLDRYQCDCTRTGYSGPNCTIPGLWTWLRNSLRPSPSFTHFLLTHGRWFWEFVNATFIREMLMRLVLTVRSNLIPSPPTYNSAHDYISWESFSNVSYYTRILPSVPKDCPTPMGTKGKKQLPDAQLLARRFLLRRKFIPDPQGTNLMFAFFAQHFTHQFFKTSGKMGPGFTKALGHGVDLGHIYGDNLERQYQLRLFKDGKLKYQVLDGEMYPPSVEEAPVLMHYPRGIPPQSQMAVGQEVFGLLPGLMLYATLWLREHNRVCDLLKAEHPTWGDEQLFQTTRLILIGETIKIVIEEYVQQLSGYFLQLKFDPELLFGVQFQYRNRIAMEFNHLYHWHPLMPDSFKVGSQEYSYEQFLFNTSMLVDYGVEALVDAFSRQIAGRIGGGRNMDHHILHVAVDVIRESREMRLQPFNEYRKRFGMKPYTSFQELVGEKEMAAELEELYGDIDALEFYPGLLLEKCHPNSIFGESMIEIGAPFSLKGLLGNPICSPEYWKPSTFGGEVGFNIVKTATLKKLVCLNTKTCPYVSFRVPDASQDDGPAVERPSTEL

Row | Structure (SMILES) | fold change (FC) [2] | fold change (FC) [3] | other results
1 | COC1c2c(-c3ccccc3)c(-c3ccc(Cl)cc3)c(C)n2CC1(C)C (configuration not stated) |  |  | IC50 [1]: 7500 nM
2 | O=C(c1cccc(Cl)c1)c1ccc2n1CCCC2C(=O)O (configuration not stated) | -9 | 8 | 
3 | O=C(O)/C=C/c1c(-c2ccc(O)cc2)c(-c2ccccc2)c2n1CCC2 |  |  | IP [4]: 0%
4 | Cc1ccccc1NC(=O)c1c(NC(=O)CCN2CCOCC2)c(C#N)c2n1CCC2 |  |  | inhibition (INH) [5]: 3.2%
5 | CSc1ccc(C(=O)c2ccc3n2CCCC3C(=O)O)cc1 (configuration not stated) | 3 | -1 | 
6 | O=C(O)/C=C/c1c(-c2ccccc2)c(-c2ccccc2)c2n1CCC2 |  |  | IP [4]: 17%
7 | O=C(c1ccccc1)c1ccc2n1CC(C(=O)O)C2 (configuration not stated) | -4 | <1 | 
8 | O=C(O)/C=C/c1c(-c2ccc(S(=O)(=O)Cc3ccccc3)cc2)c(-c2ccccc2)c2n1CCC2 |  |  | IP [4]: 0%
9 | Cc1ccc(-c2c(-c3ccc(S(C)(=O)=O)cc3)cn3c2CCC3)cc1 |  |  | IC50 [6]: 700 nM; IC50 [1]: 5 nM
10 | O=C(c1ccccc1)c1ccc2n1CCCC2C(=O)O (configuration not stated) | 9 | <1 | 
11 | CC1(C)Cn2c(CC(=O)O)c(-c3ccc(Cl)cc3)c(-c3ccccc3)c2C1=O |  |  | IC50 [1]: 2100 nM
12 | O=C(c1ccc(F)cc1)c1ccc2n1CCCCC2C(=O)O (configuration not stated) | <1.3 | <1 | 
13 | O=C(c1ccc(F)cc1)c1ccc2n1CCCC2C(=O)O (configuration not stated) | <10 | <1 | 
14 | O=C(c1ccc(F)cc1)c1ccc2n1CCC2C(=O)O (configuration not stated) | 183 | 61 | 
15 | O=C(c1ccc(Cl)cc1)c1c(Cl)cc2n1CCC2C(=O)O (configuration not stated) | 167 | 88 | 
16 | Nc1ccc(-c2c(-c3ccccc3)c3n(c2/C=C/C(=O)O)CCC3)cc1 |  |  | IP [4]: 31%
17 | O=C(c1ccccc1)c1ccc2n1CCCCC2C(=O)O (configuration not stated) | -3 | -0.4 | 
18 | O=C(c1ccc2n1CCC2C(=O)O)C1CCC1 (configuration not stated) | 30 | -1.5 | 
19 | Cc1ccc(C(=O)c2ccc3n2CCC3C(=O)O)cc1 (configuration not stated) | 165 | 39 | 
20 | Cc1c(-c2ccc(Cl)cc2)c(-c2ccccc2)c2n1CC(C)(C)C2=O |  |  | IC50 [6]: 950 nM
21 | Cc1ccccc1NC(=O)c1c(NC(=O)CN2CCOCC2)c(C#N)c2n1CCC2 |  |  | inhibition (INH) [5]: 3.9%
22 | N#Cc1c(NC(=O)CCl)c(C(=O)Nc2ccccc2Cl)n2c1CCC2 |  |  | inhibition (INH) [5]: 22.2%
23 | CSc1ccc(C(=O)c2ccc3n2CCCCC3C(=O)O)cc1 (configuration not stated) | -6 | <0.2 | 
24 | N#Cc1c(NC(=O)CN2CCOCC2)c(C(=O)Nc2ccccc2Cl)n2c1CCC2 |  |  | inhibition (INH) [5]: 7.1%
25 | O=C(O)/C=C/c1c(-c2ccc(Sc3ccccc3)cc2)c(-c2ccccc2)c2n1CCC2 |  |  | IP [4]: 40%
26 | Cc1ccccc1NC(=O)c1c(NC(=O)CCCl)c(C#N)c2n1CCC2 |  |  | inhibition (INH) [5]: 17.5%
27 | CC1(C)Cc2c(-c3ccccc3)c(-c3ccco3)c(CC(=O)O)n2C1 |  |  | IC50 [6]: 130 nM

Row | Structure (SMILES) | fold change (FC) [2] | fold change (FC) [3] | other results
28 | O=C(O)/C=C/c1c(-c2ccc([S+]([O-])c3ccccc3)cc2)c(-c2ccccc2)c2n1CCC2 (configuration not stated) |  |  | IP [4]: 12%
29 | CC1(C)Cc2c(-c3ccccc3)c(-c3occ4ccccc34)c(CC(=O)O)n2C1 |  |  | IC50 [6]: 20 nM
30 | O=C(O)/C=C/c1c(-c2ccc(S(=O)(=O)c3ccccc3)cc2)c(-c2ccccc2)c2n1CCC2 |  |  | IP [4]: 0%
31 | COc1ccc(C(=O)c2ccc3n2CCC3C(=O)O)cc1 (configuration not stated) [ANIROLAC] | 117 | 83 | 
32 | COc1ccc(C(=O)c2ccc3n2CCCC3C(=O)O)cc1 (configuration not stated) | 1.5 | <1.6 | 
33 | CC1(C)Cc2c(-c3ccccc3)c(-c3ccc(Cl)s3)c(CC(=O)O)n2C1 |  |  | IC50 [6]: 210 nM
34 | C[S+]([O-])c1ccc(C(=O)c2ccc3n2CCCC3C(=O)O)cc1 (configuration not stated) | -0.5 | <0.2 | 
35 | O=C(O)/C=C/c1c(-c2ccc(Cc3ccccc3)cc2)c(-c2ccccc2)c2n1CCC2 |  |  | IP [4]: 28%
36 | Cc1ccccc1NC(=O)c1c(NC(=O)CCl)c(C#N)c2n1CCC2 |  |  | inhibition (INH) [5]: 20.3%
37 | O=C(O)/C=C/c1c(-c2ccc([S+]([O-])Cc3ccccc3)cc2)c(-c2ccccc2)c2n1CCC2 (configuration not stated) |  |  | IP [4]: 18%
38 | O=C(c1ccc(Cl)cc1)c1ccc2n1CCCC2C(=O)O (configuration not stated) | <1 | <=0.6 | 
39 | O=C(O)/C=C/c1c(-c2ccc(-c3ccccc3)cc2)c(-c2ccccc2)c2n1CCC2 |  |  | IP [4]: 35%
40 | CC(=O)Nc1c(C#N)c2n(c1C(=O)Nc1ccccc1C)CCC2 |  |  | inhibition (INH) [5]: 23.2%
41 | O=C(O)/C=C/c1c(-c2ccc(Nc3ccc(Cl)cc3)cc2)c(-c2ccccc2)c2n1CCC2 |  |  | IP [4]: 12%
42 | N#Cc1c(NC(=O)CCCl)c(C(=O)Nc2ccccc2Cl)n2c1CCC2 |  |  | inhibition (INH) [5]: 18%
43 | CC1(C)Cc2c(-c3ccccc3)c(-c3ccsc3)c(CC(=O)O)n2C1 |  |  | IC50 [6]: 60 nM
44 | CC(C)(C)C(=O)c1ccc2n1CCC2C(=O)O (configuration not stated) | -10 | 1 | 
45 | N#Cc1c(NC(=O)CCN2CCOCC2)c(C(=O)Nc2ccccc2Cl)n2c1CCC2 |  |  | inhibition (INH) [5]: 5.7%
46 | O=C(O)/C=C/c1c(-c2ccc(Nc3cccc(C(F)(F)F)c3)cc2)c(-c2ccccc2)c2n1CCC2 |  |  | IP [4]: 45%
47 | Cc1ccc(C(=O)c2ccc3n2CCCC3C(=O)O)cc1 (configuration not stated) | <0.5 | <1 | 
48 | CC(=O)Nc1c(C#N)c2n(c1C(=O)Nc1ccccc1Cl)CCC2 |  |  | inhibition (INH) [5]: 23.9%
49 | O=C(O)/C=C/c1c(-c2ccc(SCc3ccccc3)cc2)c(-c2ccccc2)c2n1CCC2 |  |  | IC50 [6]: 5500 nM
50 | O=C(c1ccc(Cl)cc1)c1ccc2n1CC(C(=O)O)C2 (configuration not stated) | <10 | <0.3 | 
51 | CS(=O)(=O)c1ccc(C(=O)c2ccc3n2CCCC3C(=O)O)cc1 (configuration not stated) | <1 | 3 | 
52 | O=C(O)/C=C/c1c(-c2ccc(Nc3ccccc3)cc2)c(-c2ccccc2)c2n1CCC2 |  |  | IP [4]: 45%
53 | O=C(Cc1ccccc1)c1ccc2n1CCC2C(=O)O (configuration not stated) | 14 | 3 | 
54 | N#Cc1ccc(C(=O)c2ccc3n2CCC3C(=O)O)cc1 (configuration not stated) | 6 | <1 | 
